US12600740B2, “Fluorinated N-acetyl glucosamine analogs and xylose derivatives” (UTI Limited Partnership, priority 2018, dated 2026)

Legend:
[1] = test system: CSPG production by astrocytes; assay: Western blot of astrocyte conditioned medium, MAB2030 (chondroitin sulfate GAG stubs); assay type: cell-based, mouse; conditions: for effect on CSPG production by astrocytes: astrocyte conditioned media, 50 μM, 48 hours; for Reduce CSPG production: astrocytes, significance class
Excerpt: Astrocytes are major producers of CSPGs following injury in the CNS [Jones, L. L., Margolis, R. U. & Tuszynski, M. H. The chondroitin sulfate proteoglycans neurocan, brevican, phosphacan, and versican are differentially regulated following spinal cord injury. Experimental Neurology 182, 399-411 (2003); Tang, X., Davies, J. E. & Davies, S. J. Changes in distribution, cell associations, and protein expression levels of NG2, neurocan, phosphacan, brevican, versican V2, and tenascin-C during acute to chronic maturation of spinal cord scar tissue. […] The Journal of neuroscience: the official journal of the Society for Neuroscience 20, 2427-2438 (2000); McKeon, R. J., Jurynec, M. J. & Buck, C. R. The chondroitin sulfate proteoglycans neurocan and phosphacan are expressed by reactive astrocytes in the chronic CNS glial scar. The Journal of neuroscience: the official journal of the Society for Neuroscience 19, 10778-10788 (1999); Haas, C. A., Rauch, U., Thon, N., Merten, T. & Deller, T. Entorhinal cortex lesion in adult rats induces the expression of the neuronal chondroitin sulfate proteoglycan neurocan in reactive astrocytes. The Journal of neuroscience: the official journal of the Society for Neuroscience 19, 9953-9963 (1999)] and they may help drive progression of disability in a model of progressive MS [Mayo, L. et al. Regulation of astrocyte activation by glycolipids drives chronic CNS inflammation. Nature medicine 20, 1147-1156 (2014)]. Therefore astrocytes were used as model cells to determine the ability of the sugar analogs to reduce synthesis of CSPGs. Since CSPGs are exported out of cells, the conditioned media from analog-treated astrocytes were probed by Western blots (FIG. 4). We used antibodies to both the stubs of chondroitin sulfate GAGs attached to the core protein (MAB2030) and to intact 4-sulfated chondroitin sulfate sidechains (2H6) (FIG. 4a). Particularly, we used the 2H6 antibody to label intact 4-sulfated chondroitin sulfate sidechains, and the MAB2030 antibody to detect the stubs of chondroitin sulfate GAGs attached to the core protein. […] 1998, 160 (8), 3812-3819. Poole Poole C. A.; Glant T. T.; Schofield J. R.; Chondrons from articular cartilage. (IV). Immunolocalization of proteoglycan epitopes in isolated canine tibial chondrons. J. Histochem. Cytochem. 1991, 39 (9), 1175-1187].
Astrocytes were plated in uncoated 6-well plates (3 replicate wells per treatment) at 1×10^6 cells/well in mixed glial media, and incubated at 5% CO2 and 37° C. Astrocytes were treated with compounds at 50 μM in AIM-V media for 48 hours. Media was pooled from 3 replicate wells in 15 ml 100K cutoff centricon tubes (EMD Millipore, #UFC905008), which were spun on an ultracentrifuge at 5000× g for 2 cycles of 10 minutes each. When harvested, the cell lysate was kept on ice for 5 minutes with 250 μL of RIPA buffer (ThermoFisher Scientific #89900) containing proteinase inhibitor, and then collected and centrifuged at 14000 g for 5 minutes. Total protein was quantified using a Bradford assay. Conditioned media that were to be probed for chondroitin 4-sulfate GAGs (Millipore, #MAB2030) were first digested with 0.2 U/ml chondroitinase ABC for overnight at 37° C. to remove chondroitin sulfate sidechains. Blots that were to be probed with CSA (2H6, Cosmo) or CS56 (Abcam #ab11570) were not exposed to chondroitinase ABC. Samples were heat denatured with NuPAGE® LDS Sample buffer at 70° C. for 10 minutes and then loaded into 3-8% tris-acetate pre-cast gels (ThermoFisher, #EA0478BOX). The gels were electrophoresed at a constant 150 V for 90 minutes and transferred to a […] polyvinylidene fluoride membrane at a constant 250 mA for 60 minutes. The membranes were blocked for one hour with 10% skim milk in Tris-buffered saline (TBS; 0.9% NaCl, 10 mM Tris-HCl, pH 7.5) containing 0.5% Tween 20 (TBS-T). Primary antibodies were added in 3% skim milk and incubated overnight at 4° C. […]

splenocytes = assay: Splenocyte thymidine proliferation assay (anti-CD3/anti-CD28); assay type: cell-based, mouse; conditions: for Reduce T cell proliferation: activated splenocytes, significance class
Protocol: It was assessed whether the glucosamine analogs have immunomodulatory properties on splenocytes isolated in culture. T cells within the splenocyte pool were polyclonally activated with anti-CD3 and anti-CD28 antibodies in the presence of compounds for 48 hours, and proliferation was determined by the uptake of tritiated thymidine and expressed as counts per minute. The relative change in proliferation of treated versus control splenocytes was taken in order to rank the compounds across multiple independent experiments (FIG. 8a).
The spleens were isolated from 8-10-week-old female C57BL/6 mice and homogenized. The cells were isolated by Ficoll gradient and spun for 30 min at 1,800 r.p.m. The cell suspension was removed and the cells were washed once with PBS. The cell pellet was subsequently re-suspended in Roswell Park Memorial Institute media containing 10% fetal bovine serum, 1% penicillin/streptomycin, 1% sodium pyruvate and 1% L-glutamine. Trypan blue exclusion was used to count live cells, and the cells were plated at 2.5×10^5 cells per well in a round-bottom 96-well plate and activated with 1,000 ng/ml plate-bound anti-CD3 and 1,000 ng/ml anti-CD28 suspended in media to preferentially activate T lymphocytes. Compounds were added at final concentrations of 25 μM. The cells were kept at 37° C. and 5% CO2 for 30 h, after which 10 μl/well (1 μCi per well) of 3H-thymidine was added for 18 h. The cells containing thymidine were harvested onto filter mats using a cell harvester and mats were allowed to dry for 24 h. The results were read by liquid scintillation counts.

## CC(=O)O[C@@H]1[C@@H](OC(C)=O)[C@H](OCCO)OC[C@H]1OC(C)=O [Compound 20, 2-Hydroxyethyl 2,3,4-tri-O-acetyl-β-D-xylopyranoside]
[1]
  effect on CSPG production by astrocytes: CSPG production was not impacted

## CC(=O)O[C@@H]1[C@@H](OC(C)=O)[C@H](OCCOCCOCCOCCO)OC[C@H]1OC(C)=O [Compound 21, 2-(2-(2-(2-Hydroxyethoxy)ethoxy)ethoxy)ethyl 2,3,4-tri-O-acetyl-β-D-xylopyranoside]
[1]
  effect on CSPG production by astrocytes: effective at reducing CSPGs

## CC(=O)O[C@@H]1[C@@H](OC(C)=O)[C@H](OCCS(=O)(=O)[O-])OC[C@H]1OC(C)=O.[Na+] [Compound 22, 2-Sulfoethyl 2,3,4-tri-O-acetyl-β-D-xylopyranoside, sodium salt]
[1]
  effect on CSPG production by astrocytes: CSPG production was not impacted

## O[C@@H]1[C@@H](O)[C@H](OCc2ccccc2)OC[C@H]1O [Compound 19, reference compound]
splenocytes
  Reduce T cell proliferation: n.s.
[1]
  effect on CSPG production by astrocytes: CSPG production was not impacted
  Reduce CSPG production: n.s.

## CO[C@H]1[C@H](F)[C@@H](COC(C)=O)OC(OC(C)=O)[C@@H]1NC(C)=O (stereo partly drawn) [Compound 6, 2-Acetamido-1,6-di-O-acetyl-2,4-dideoxy-4-fluoro-3-O-methyl-α/β-D-glucopyranose]
splenocytes
  Reduce T cell proliferation: n.s.
[1]
  effect on CSPG production by astrocytes: did not affect CSPG synthesis
  Reduce CSPG production: n.s.

## CC(=O)OC[C@H]1OC(OC(C)=O)[C@H](NC(=O)C(F)(F)F)[C@@H](OC(C)=O)[C@@H]1F (stereo partly drawn) [Compound 9, 1,3,6-Tri-O-acetyl-2,4-dideoxy-4-fluoro-2-trifluroacetamido-α/β-D-glucopyranose]
splenocytes; 25 μM, 48 hours
  splenocyte proliferation: reduced splenocyte proliferation
splenocytes
  Reduce T cell proliferation: *** (***p < 0.001)
[1]
  effect on CSPG production by astrocytes: did not lower CSPG production in astrocytes
  Reduce CSPG production: n.s.

## CC(=O)O[C@@H]1OC[C@@H](F)[C@H](OC(C)=O)[C@H]1OC(C)=O [Compound 28, 1,2,3-tri-O-acetyl-4-deoxy-4-fluoro-β-D-xylopyranose]
[1]
  effect on CSPG production by astrocytes: did not reduce CSPG production

## CC(=O)N[C@H]1C(OC(C)=O)O[C@H](COC(C)=O)[C@H](Cl)[C@@H]1OC(C)=O (stereo partly drawn) [Compound 15, 2-Acetamido-1,3,6-tri-O-acetyl-2,4-dideoxy-4-chloro-α/β-D-galactopyranoside]
splenocytes
  Reduce T cell proliferation: * (*p < 0.05)
[1]
  Reduce CSPG production: n.s.

## CC(=O)O[C@@H]1[C@@H](OC(C)=O)[C@@H](OCCCCCCS(=O)(=O)[O-])OC[C@H]1OC(C)=O.[Na+] [Compound 24, 6-Sulfohexyl 2,3,4-tri-O-acetyl-α-D-xylopyranoside, sodium salt]
[1]
  effect on CSPG production by astrocytes: did not act as an inhibitor

## CC(=O)N[C@H]1C(O)O[C@H](CO)[C@@H](O)[C@@H]1O (stereo partly drawn) [GlcNAc, N-Acetyl-D-glucosamine, reference compound]
[1]
  effect on CSPG production by astrocytes: did not affect CSPG production

## COC[C@H]1OC(OC(C)=O)[C@H](NC(C)=O)[C@@H](OC)[C@@H]1F (stereo partly drawn) [Compound 5, 2-Acetamido-1-O-acetyl-2,4-dideoxy-4-fluoro-3,6-di-O-methyl-α/β-D-glucopyranose]
splenocytes
  Reduce T cell proliferation: n.s.
[1]
  effect on CSPG production by astrocytes: did not affect CSPG synthesis
  Reduce CSPG production: n.s.
